Assay results from patent publication US20110144040A1, “Acteoside and acteoside-rich plant extracts for increasing athletic performance in humans” (MN Intellectual Property Corp, LLC, priority 2009, published 2011).

Columns and labels:
[1] = system: athletic performance in humans; assay: oral acteoside supplementation for athletic performance in exercising humans; format: in vivo, human; details: peroral, used according to recommended protocols
Excerpt: Athletic performance is defined as any sporting activity where muscle strength and/or endurance are integral to individual performance, and is inclusive of both aerobic and anaerobic metabolic conditions. This includes active athletic competition, such as baseball, football, running, or Track & Field. It also includes any exercise activity designed to improve physical performance, directly or indirectly, via an improvement in muscle protein content (size), strength, and/or endurance, such as resistance training (circuit equipment, weight training), aerobics, Pilates, and/or calisthenics. Any improvement in athletic performance must include objective increases in speed, strength, muscle size (protein content), and/or endurance. It may also involve improved recovery from fatigue following exercise or athletic competition.
This includes an ability to increase muscle strength, muscle power, endurance, and muscle protein content (size), as well as to reduce fatigue and facilitate recovery following intense exercise or athletic competition. The benefits appear almost immediately in some cases, but are more likely to occur after several weeks of regular use of acteoside or extracts containing acteoside. […]
During the course of developing this invention, an effective oral daily dosage of acteoside to improve athletic performance was determined to be between 25 mg to 2,500 mg. […]

[2] = system: prostaglandin biosynthesis; details: Arch Pharm Res 2006 29(6), 508-13; cited from earlier work
[3] = system: free-radical induced oxidative stress; details: J Pharm Pharmacol 2004 56(6) 743-8; cited from earlier work

Structure (SMILES): C[C@@H]1O[C@@H](O[C@@H]2[C@@H](O)[C@H](OCCc3ccc(O)c(O)c3)O[C@H](CO)[C@H]2OC(=O)/C=C/c2ccc(O)c(O)c2)[C@H](O)[C@H](O)[C@H]1O [acteoside]
- improving athletic performance [1]: effective in-vivo peroral agents for improving athletic performance
- inhibition of prostaglandin biosynthesis [2]: strong inhibitor
- inhibition of free-radical induced oxidative stress [3]: strong inhibitor
